The values that follow come from paper PMC9822280, “A Rapid and Sensitive Liquid Chromatography-Tandem Mass Spectrometry Bioanalytical Method for the Quantification of Encorafenib and Binimetinib as a First-Line Treatment for Advanced (Unresectable or Metastatic) Melanoma—Application to a Pharmacokinetic Study” (Molecules, 2022).

A short description of series [1]: Stability of binimetinib and encorafenib in rat plasma under different storage conditions. The note with it: for recovery at 24 h, 2400 ng/mL / recovery at 2400 ng/mL / recovery at 30 days, 2400 ng/mL: HQC 2400 ng/mL; for recovery at 2400 ng/mL / recovery at 1.5 ng/mL / recovery at 1800 ng/mL: n 3, read-out: Freeze and Thaw Stability at −80 °C (3 Cycles), Recovery (%); for recovery at 30 days, 2400 ng/mL / recovery at 30 days, 1.5 ng/mL / recovery at 30 days, 1800 ng/mL: n 3, read-out: Long Term Stability at −80 °C (30 Days), Recovery (%); for recovery at 24 h, 1.5 ng/mL / recovery at 1.5 ng/mL / recovery at 30 days, 1.5 ng/mL: LQC 1.5 ng/mL; for recovery at 24 h, 1800 ng/mL / recovery at 1800 ng/mL / recovery at 30 days, 1800 ng/mL: MQC 1800 ng/mL. Format: in vitro ADME. The method, then: An important process of bioanalytical method validation is stability assessment. Stability of BNB and ENF was studied throughout the analysis of three QC samples (LQC, MQC and HQC) of each drug after the application of the different storage conditions. The different parameters investigated include short-term stability at room temperature for 24 h, autosampler stability at 10 °C for 24 h, three freeze and thaw cycles after storing at −80 °C, and long-term stability at −80 °C for 30 days. The results of stability experiments were satisfactory and complied with the accuracy criteria of ±15% of its theoretical concentration.
The stability of ENF and BNB was assessed after exposing the QC samples at LQC, MQC, and HQC to different storage conditions (temperature and time). The applied conditions include short-term stability at room temperature for 24 h in an autosampler for 24 h at 10 °C. Long-term stability was assessed after storing QCs for 30 days at −80 °C. Freeze and thaw stability were evaluated after three freezing and thawing cycles and compared with freshly prepared QCs. Moreover, the stock solution stability for ENF and BNB and IS was studied at a temperature of 5 ± 2 °C. All sample accuracies should be ± 15% to be considered stable.

Series [2] in a line: Pharmacokinetic study in rats after oral administration of binimetinib and encorafenib. Format: in vivo. The note with it: male, Wistar, rat plasma, oral 3.8 mg/kg binimetinib and 20 mg/kg encorafenib, fasting; for AUC(0-t) / AUC(0-inf) / Cmax / MRT inf / half-life: mean ± SD; for AUC(0-t): read-out: AUC0-t (area under the curve up to the last sampling time); for AUC(0-inf): read-out: AUC0-∞ (area under the curve extrapolated to infinity); for Cmax: read-out: Cmax (maximum plasma concentration); for MRT inf: read-out: MRT0-∞ (mean residence time); for half-life: read-out: t1/2kel (half-life in elimination phase) (converted); for Tmax: read-out: Tmax (time taken to reach the maximum plasma concentration). The method, then: The newly developed and validated LC-MS/MS assay was effectively applied to evaluate BNB and ENF in rat plasma for a pharmacokinetic study after oral administration of 3.8 mg/kg BNB and 20 mg/kg ENF for four healthy male Wistar rats under fasting conditions. […] The values acquired in the current investigation for BNB for t1/2kel and Cl/F parameters are consistent with in vivo BNB PK studies. Furthermore, the Tmax parameter for BNB is similar to that represented in a recently published paper.
Four healthy male Wistar rats (220–250 g) were brought from the Animal Care Center of King Saud University (Saudia Arabia). All experimental procedures were reviewed in accordance with the guidelines of King Saud University Institutional Research Ethics Committee (REC) with an ethics reference number (SE-19–109). Rats were acclimatized for 7 days to laboratory environments before the experiment was directed. Diet was prohibited for 12 h before the experiment, but the water was freely available. The dose of drugs was determined according to the body surface area employing the below-mentioned formula [22]. Human dose (mg/kg) = Animal dose (mg/kg) × animal Km/Human Km
Km is a factor used in dose conversion. It is a ratio of average body weight (kg) and body surface area (m^2). Km values for the rat and human are 6 and 37, respectively. Human dose for BNB and ENF was considered as 90 and 450 mg, respectively.
Blood samples (300 μL) were collected into heparinized 1.5 mL polythene tubes containing ethylenediamine tetraacetic acid dipotassium (EDTA K2) (anticoagulant) before drug administration and at 0.15, 0.5, 1, 2, 4, 6, 8, 12, 18, and 24 h after oral administration of binimetinib (3.8 mg/kg) and encorafenib (20 mg/kg). In the current study, both drugs were dissolved in 1% DMSO/saline. The samples were directly centrifuged at 3500 rpm for 10 min at 4 °C. The plasma obtained was stored at −80 °C until analysis. The same method of extraction described under calibration standards preparation (2.4.) was used for sample preparation. The PK parameters of BNB and ENF such as Cmax, Tmax, t1/2kel, AUC0–24, and AUC0–∞ were calculated by fitting the data to a non-compartmental analysis (NCA) model with PK Solver Add-In software.

The mark [3] stands for this setting: n 3, read-out: Autosampler Stability at 10 °C (24 h), Recovery (%).
Setting [4] is: n 3, read-out: Short Term Stability at Room Temperature (24 h), Recovery (%).

Read-outs that look alike come from different tables or passages of the source.

Take `Cn1cnc2c(F)c(Nc3ccc(Br)cc3F)c(C(=O)NOCCO)cc21` [Binimetinib, binimetinib]: in series [1] (setting [3]), the recovery at 24 h, 2400 ng/mL came to 95.4%; the recovery at 24 h, 1.5 ng/mL was 97.3%; the recovery at 24 h, 1800 ng/mL stood at 104%. In series [1], the recovery at 2400 ng/mL was 95.2%; the recovery at 30 days, 2400 ng/mL was 94.8%; the recovery at 1.5 ng/mL came out at 104%; the recovery at 30 days, 1.5 ng/mL was 95.5%. For the same molecule, in series [1], the recovery at 1800 ng/mL was determined as 104% and the recovery at 30 days, 1800 ng/mL is 104%. Besides, in series [1] (setting [4]), the recovery at 24 h, 2400 ng/mL was found to be 93.4%; the recovery at 24 h, 1.5 ng/mL was determined as 96.2%; the recovery at 24 h, 1800 ng/mL was determined as 103%. In addition, in series [2], the AUC(0-t) was 12400 ± 1860 ng·h/mL, the AUC(0-inf) is 18200 ± 1310 ng·h/mL, the Cmax was 3430 ± 460 ng/mL and the MRT inf came to 4.5 ± 0.28 h. For the same molecule, in series [2], the half-life was 3.39 ± 0.43 h and the Tmax came to 1 h.
As for `COC(=O)N[C@@H](C)CNc1nccc(-c2cn(C(C)C)nc2-c2cc(Cl)cc(NS(C)(=O)=O)c2F)n1` [Encorafenib, encorafenib], in series [1] (setting [3]), the recovery at 24 h, 2400 ng/mL amounted to 92.4%; the recovery at 24 h, 1.5 ng/mL was 96.6%; the recovery at 24 h, 1800 ng/mL was 99.8%. Moreover, in series [1], the recovery at 2400 ng/mL was 96.5%; the recovery at 30 days, 2400 ng/mL stood at 94.6%; the recovery at 1.5 ng/mL is 99.5%; the recovery at 30 days, 1.5 ng/mL turned out to be 97.5%. Also, in series [1], the recovery at 1800 ng/mL came out at 96.8% and the recovery at 30 days, 1800 ng/mL worked out at 102%. For the same molecule, in series [1] (setting [4]), the recovery at 24 h, 2400 ng/mL came to 94.5%; the recovery at 24 h, 1.5 ng/mL is 95.2%; the recovery at 24 h, 1800 ng/mL turned out to be 103%. Also, in series [2], the AUC(0-t) came out at 30300 ± 3010 ng·h/mL, the AUC(0-inf) is 36500 ± 3920 ng·h/mL, the Cmax was 16400 ± 1470 ng/mL and the MRT inf turned out to be 3.23 ± 0.4 h. In series [2], the half-life is 2.48 ± 0.24 h and the Tmax was 1 h.
